Data reported in the supplement of paper PMC10307832.

Experiments:
Test in all cases: relative viability (nuclei count vs DMSO), 5 days (fraction); higher = more cells survive
Selumetinib + Crizotinib = compound: Cn1cnc2c(F)c(Nc3ccc(Br)cc3Cl)c(C(=O)NOCCO)cc21 [Selumetinib] + C[C@@H](Oc1cc(-c2cnn(C3CCNCC3)c2)cnc1N)c1c(Cl)ccc(F)c1Cl [Crizotinib] (partner 1 µM)
Method in brief: (§1)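 Lung cancer cell lines in 1536-well plates were dosed by pin tool the day after seeding, either with one drug alone or with a fixed anchor-drug dose plus five library-drug doses (not always all listed) in √10 steps. After 5 days, cells were fixed and their nuclei stained in one step (final 0.05% Triton X-100, 1% formaldehyde, 1 ug/ml Hoechst), then counted on 4× images. Relative viability is the nuclei count in treated wells divided by that in vehicle wells. Values are medians of duplicate plates.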

Selumetinib + Pemetrexed = compound: Cn1cnc2c(F)c(Nc3ccc(Br)cc3Cl)c(C(=O)NOCCO)cc21 [Selumetinib] + Nc1nc2[nH]cc(CCc3ccc(C(=O)N[C@@H](CCC(=O)O)C(=O)O)cc3)c2c(=O)[nH]1 [Pemetrexed] (partner 0.2 µM)
Method in brief: as §1

Selumetinib + Olaparib = compound: Cn1cnc2c(F)c(Nc3ccc(Br)cc3Cl)c(C(=O)NOCCO)cc21 [Selumetinib] + O=C(c1cc(Cc2n[nH]c(=O)c3ccccc23)ccc1F)N1CCN(C(=O)C2CC2)CC1 [Olaparib] (partner 8 µM)
Method in brief: as §1

Venetoclax + Linsitinib = compound: CC1(C)CCC(CN2CCN(c3ccc(C(=O)NS(=O)(=O)c4ccc(NCC5CCOCC5)c([N+](=O)[O-])c4)c(Oc4cnc5[nH]ccc5c4)c3)CC2)=C(c2ccc(Cl)cc2)C1 [Venetoclax] + C[C@]1(O)C[C@@H](c2nc(-c3ccc4ccc(-c5ccccc5)nc4c3)c3c(N)nccn32)C1 [Linsitinib] (partner 1 µM)
Method in brief: as §1

Cell Line | relative viability (Selumetinib + Crizotinib; first compound 0.02 µM) | relative viability (Selumetinib + Crizotinib; first compound 0.06325 µM) | relative viability (Selumetinib + Crizotinib; first compound 0.2 µM) | relative viability (Selumetinib + Crizotinib; first compound 0.6325 µM) | relative viability (Selumetinib + Pemetrexed; first compound 0.02 µM) | relative viability (Selumetinib + Pemetrexed; first compound 0.06325 µM) | relative viability (Selumetinib + Pemetrexed; first compound 0.2 µM) | relative viability (Selumetinib + Pemetrexed; first compound 0.6325 µM) | relative viability (Selumetinib + Olaparib; first compound 0.02 µM) | relative viability (Selumetinib + Olaparib; first compound 0.06325 µM) | relative viability (Selumetinib + Olaparib; first compound 0.2 µM) | relative viability (Selumetinib + Olaparib; first compound 0.6325 µM) | relative viability (Venetoclax + Linsitinib; first compound 0.01 µM) | relative viability (Venetoclax + Linsitinib; first compound 0.03162 µM) | relative viability (Venetoclax + Linsitinib; first compound 0.1 µM) | relative viability (Venetoclax + Linsitinib; first compound 0.3162 µM) | relative viability (Venetoclax + Linsitinib; first compound 1 µM)
NCI-H838 | 0.783 | 0.689 | 0.634 | 0.601 | 0.234 | 0.214 | 0.233 | 0.242 | 0.727 | 0.67 | 0.652 | 0.662 | 1.11 | 1.03 | 1.01 | 1.03 | 0.938
HCC-366 | 0.492 | 0.462 | 0.308 | 0.238 | 0.224 | 0.191 | 0.234 | 0.206 | 0.415 | 0.296 | 0.198 | 0.19 | 0.659 | 0.657 | 0.605 | 0.779 | 0.549
NCI-H1651 | 0.973 | 0.8 | 0.821 | 0.766 | 0.623 | 0.57 | 0.596 | 0.626 | 0.189 | 0.201 | 0.182 | 0.171 | 0.926 | 1.13 | 0.938 | 0.962 | 0.995
LOU-NH91 | 0.709 | 0.715 | 0.683 | 0.677 | 0.438 | 0.397 | 0.458 | 0.385 | 0.914 | 0.845 | 0.864 | 0.806 | 0.887 | 0.986 | 0.882 | 0.975 | 0.895
NCI-H520 | 0.791 | 0.766 | 0.764 | 0.809 | 0.654 | 0.754 | 0.752 | 0.731 | 0.331 | 0.349 | 0.363 | 0.3 | 1.04 | 0.935 | 0.911 | 0.969 | 0.902
H3255 | 0.879 | 0.96 | 0.88 | 0.802 | 0.564 | 0.571 | 0.552 | 0.549 | 0.554 | 0.586 | 0.603 | 0.536 | 1 | 0.953 | 0.809 | 0.873 | 0.915
